≈ marks a conversion by molar mass, not a printed value. Calls of active or inactive are those of the source. The rule behind the calls is not given here.
Tests used:
Human respirovirus 3 = experiment: Antiviral activity against Parainfluenza 3 virus assessed as inhibition of viral replication; assay type: functional, organism-based
[1] = system: Mammalian orthoreovirus 1; experiment: Antiviral activity against Reovirus 1 assessed as inhibition of viral replication; assay type: functional, organism-based
Sindbis virus = experiment: Antiviral activity against Sindbis virus assessed as inhibition of viral replication; assay type: functional, organism-based
[2] = system: Vesicular stomatitis virus; experiment: Antiviral activity against Vesicular stomatitis virus assessed as inhibition of viral replication; assay type: functional, organism-based
[3] = system: Respiratory syncytial virus; experiment: Antiviral activity against Respiratory syncytial virus assessed as inhibition of viral replication; assay type: functional, organism-based
Coxsackievirus B4 = experiment: Antiviral activity against Coxsackievirus B4 assessed as inhibition of viral replication; assay type: functional, organism-based
Feline coronavirus = experiment: Antiviral activity against Feline coronavirus assessed as inhibition of viral replication; assay type: functional, organism-based
Yellow fever virus = experiment: Antiviral activity against Yellow fever virus assessed as inhibition of viral replication; assay type: functional, organism-based
Dengue virus = experiment: Antiviral activity against Dengue virus assessed as inhibition of viral replication; assay type: functional, organism-based
Rift Valley fever virus = experiment: Antiviral activity against Rift Valley fever virus assessed as inhibition of viral replication; assay type: functional, organism-based
Punta Toro virus = experiment: Antiviral activity against Punta Toro virus assessed as inhibition of viral replication; assay type: functional, organism-based
West Nile virus = experiment: Antiviral activity against West Nile virus assessed as inhibition of viral replication; assay type: functional, organism-based
[4] = Inhibition of DNA-dependent DNA polymerase activity of HIV1 reverse transcriptase p66/p66 homodimer using activated DNA and [alpha-32P]dATP after 30 mins by liquid scintillation counting; parameters: species or system Human immunodeficiency virus 1
[5] = target: Human immunodeficiency virus type 1 reverse transcriptase (Human immunodeficiency virus 1, UniProt Q72547); experiment: Inhibition of RNA-dependent DNA polymerase activity of HIV1 reverse transcriptase p66/p51 heterodimer using [8-3H]dGTP as substrate after 30 mins by liquid scintillation counting
[6] = Inhibition of DNA-dependent DNA polymerase activity of HIV1 reverse transcriptase p66/p66 homodimer L100I mutant using activated DNA and [alpha-32P]dATP after 30 mins by liquid scintillation counting; parameters: species or system Human immunodeficiency virus 1
[7] = Inhibition of DNA-dependent DNA polymerase activity of HIV1 reverse transcriptase p66/p66 homodimer V106A mutant using activated DNA and [alpha-32P]dATP after 30 mins by liquid scintillation counting; parameters: species or system Human immunodeficiency virus 1
[8] = Inhibition of DNA-dependent DNA polymerase activity of HIV1 reverse transcriptase p66/p66 homodimer Y188L mutant using activated DNA and [alpha-32P]dATP after 30 mins by liquid scintillation counting; parameters: species or system Human immunodeficiency virus 1
[9] = Inhibition of DNA-dependent DNA polymerase activity of HIV1 reverse transcriptase p66/p66 homodimer G190A mutant using activated DNA and [alpha-32P]dATP after 30 mins by liquid scintillation counting; parameters: species or system Human immunodeficiency virus 1
[10] = system: Human immunodeficiency virus 1; experiment: Ratio of Ki for HIV1 RT p66/p66 homodimer L100I mutant to Ki for wild-type HIV1 RT p66/p66 homodimer
[11] = system: Human immunodeficiency virus 1; experiment: Ratio of Ki for HIV1 RT p66/p66 homodimer K103N mutant to Ki for wild-type HIV1 RT p66/p66 homodimer
[12] = system: Human immunodeficiency virus 1
[13] = system: Human immunodeficiency virus 1; experiment: Ratio of Ki for HIV1 RT p66/p66 homodimer Y188L mutant to Ki for wild-type HIV1 RT p66/p66 homodimer
[14] = system: Human immunodeficiency virus 1; remark: listed apart in the source
[15] = Solubility of the compound in 10% DMSO after overnight incubation by UV spectrometric analysis; assay type: physicochemical
[16] = Solubility of the compound in 0.1% DMSO after overnight incubation by UV spectrometric analysis; assay type: physicochemical
[17] = system: Human immunodeficiency virus 2; experiment: Antiviral activity against Human immunodeficiency virus type 2 ROD infected in human CEM cells assessed as inhibition of virus-induced giant cell formation after 4 days by microscopic analysis; assay type: functional, organism-based; details: ISOLATE ROD, CCRF-CEM
[18] = system: Human immunodeficiency virus 2; experiment: Antiviral activity against Human immunodeficiency virus type 2 ROD infected in human MT4 cells assessed as inhibition of virus-induced cytopathic effect after 4 days by MTT assay; assay type: functional, organism-based; details: ISOLATE ROD
[19] = system: Human immunodeficiency virus 1; assay type: functional, organism-based; details: Human immunodeficiency virus 1, 3B, MT4, 96 h
[20] = Cytotoxicity against human MT4 cells after 4 days by MTT assay; assay type: cell-based
Human alphaherpesvirus 1 = experiment: Antiviral activity against HSV1 assessed as inhibition of viral replication; assay type: functional, organism-based
Human alphaherpesvirus 2 = experiment: Antiviral activity against HSV-2 assessed as inhibition of viral replication; assay type: functional, organism-based
Vaccinia virus = experiment: Antiviral activity against Vaccinia virus assessed as inhibition of viral replication; assay type: functional, organism-based; details: Orthopoxvirus vaccinia
[21] = target: Human immunodeficiency virus type 1 reverse transcriptase (Human immunodeficiency virus 1, UniProt Q72547, K103N)
in vitro [22] = details: human, MT4 cells
in vitro [23] = details: human, MT4 cells; remark: listed apart in the source
[24] = system: Human immunodeficiency virus 1; experiment: microbe, parasite or virus in culture; details: Human immunodeficiency virus 1, 3B, MT4, 96 h
[25] = system: Human immunodeficiency virus 1; experiment: Ratio of Ki for HIV1 RT p66/p66 homodimer G190A mutant to Ki for wild-type HIV1 RT p66/p66 homodimer
[26] = Selectivity index, ratio of CC50 for human CEM cells to EC50 for HIV1 3B; assay type: toxicity, cell-based, CCRF-CEM; details: read-out: Ratio CC50/EC50
[27] = system: Human immunodeficiency virus 1; experiment: Antiviral activity against HIV1 3B infected in human CEM cells assessed as inhibition of virus-induced giant cell formation after 4 days by microscopic analysis; assay type: functional, organism-based; details: Human immunodeficiency virus 1, 3B, CCRF-CEM, 96 h
[28] = system: Human immunodeficiency virus 1; assay type: functional, organism-based; details: Human immunodeficiency virus 1, 3B, CCRF-CEM, 96 h
[29] = Cytotoxicity against human CEM cells after 4 days by MTT assay; assay type: cell-based; details: CEM cells (CCRF-CEM)
[30] = system: Human immunodeficiency virus 1; experiment: Inhibition of DNA-dependent DNA polymerase activity of HIV1 reverse transcriptase p66/p66 homodimer using activated DNA and [alpha-32P]dATP after 30 mins by liquid scintillation counting in presence of heparin

**Q.** What does the source list for `Cc1cc(C)cc(C(=O)c2cc(Cl)ccc2OCCn2ccc(=O)[nH]c2=O)c1`?
**A.** Activity (Human respirovirus 3): inactive; Activity [1]: inactive; Activity (Sindbis virus): inactive; Activity [2]: inactive; Activity [3]: inactive; Activity (Coxsackievirus B4): inactive; Activity (Feline coronavirus): inactive; Activity (Yellow fever virus): inactive; Activity (Dengue virus): inactive; Activity (Rift Valley fever virus): inactive; Activity (Punta Toro virus): inactive; Activity (West Nile virus): inactive; Ki [4]: 2.4 µM; Ki [5]: 0.52 µM; Ki [6]: 3.3 µM; Ki [7]: > 1000 µM; Ki [8]: 10 µM; Ki [9]: 1 µM; Ratio Ki [10]: 1.4; Ratio Ki [11]: 13.8; Ratio Ki [12]: 3.3; Ratio Ki [13]: 4.3; Ratio Ki [14]: 23.8; solubility [15]: 16.6 µM (≈ 6.62 µg/mL); solubility [16]: 3.7 µM (≈ 1.48 µg/mL); Activity [17]: inactive; Activity [18]: inactive; EC50 [19]: > 313 µM; CC50 at 96 h [20]: > 313 µM; Activity (Human alphaherpesvirus 1): inactive; Activity (Human alphaherpesvirus 2): inactive; Activity (Vaccinia virus): inactive; Ki [21]: 33 µM; selectivity ratio (in vitro [22]): > 19600; selectivity ratio (in vitro [23]): 1; EC50 [24]: 0.016 µM

**Q.** Which Activity (Human respirovirus 3) does the source give for `O=C(c1cc(Cl)cc(Cl)c1)c1cc(Cl)ccc1OCCn1ccc(=O)[nH]c1=O` here?
**A.** inactive

**Q.** And the Activity [1]?
**A.** inactive

**Q.** And the Activity (Sindbis virus)?
**A.** inactive

**Q.** What about the Activity [2] of the same molecule?
**A.** inactive

**Q.** What about the Activity [3] of the same molecule?
**A.** inactive

**Q.** And the Activity (Coxsackievirus B4)?
**A.** inactive

**Q.** What about the Activity (Feline coronavirus) of the same molecule?
**A.** inactive

**Q.** What about the Activity (Yellow fever virus) of the same molecule?
**A.** inactive

**Q.** And the Activity (Dengue virus)?
**A.** inactive

**Q.** And the Activity (Rift Valley fever virus)?
**A.** inactive

**Q.** And the Activity (Punta Toro virus)?
**A.** inactive

**Q.** What about the Activity (West Nile virus) of the same molecule?
**A.** inactive

**Q.** And the Ki [4]?
**A.** 0.68 µM

**Q.** And the Ki [5]?
**A.** 0.82 µM

**Q.** And the Ki [6]?
**A.** 1.8 µM

**Q.** And the Ki [7]?
**A.** > 1200 µM

**Q.** What about the Ki [8] of the same molecule?
**A.** 8.4 µM

**Q.** What about the Ki [9] of the same molecule?
**A.** 1.6 µM

**Q.** And the Ratio Ki [10]?
**A.** 2.5

**Q.** What about the Ratio Ki [11] of the same molecule?
**A.** 8

**Q.** And the Ratio Ki [12]?
**A.** 2

**Q.** And the Ratio Ki [13]?
**A.** 12

**Q.** And the Ratio Ki [25]?
**A.** 2.3

**Q.** What about the Ratio Ki [14] of the same molecule?
**A.** 14.9

**Q.** What about the solubility [15] of the same molecule?
**A.** 9.4 µM (≈ 4.13 µg/mL)

**Q.** What about the solubility [16] of the same molecule?
**A.** 1.9 µM (≈ 0.835 µg/mL)

**Q.** And the Activity [17]?
**A.** inactive

**Q.** What about the Activity [18] of the same molecule?
**A.** inactive

**Q.** And the EC50 [19]?
**A.** 1.13 µM

**Q.** And the CC50 at 96 h [20]?
**A.** > 284 µM

**Q.** What about the Activity (Human alphaherpesvirus 1) of the same molecule?
**A.** inactive

**Q.** And the Activity (Human alphaherpesvirus 2)?
**A.** inactive

**Q.** What about the Activity (Vaccinia virus) of the same molecule?
**A.** inactive

**Q.** And the Ki [21]?
**A.** 5.6 µM

**Q.** What about the selectivity ratio (in vitro [22]) of the same molecule?
**A.** > 15800

**Q.** And the selectivity ratio (in vitro [23])?
**A.** > 251

**Q.** And the EC50 [24]?
**A.** 0.018 µM

**Q.** Which Activity (Human respirovirus 3) does the source give for `Cc1cc(C)cc(Cc2cc(Cl)ccc2OCCn2ccc(=O)[nH]c2=O)c1` here?
**A.** inactive

**Q.** And the Activity [1]?
**A.** inactive

**Q.** What about the Activity (Sindbis virus) of the same molecule?
**A.** inactive

**Q.** And the Activity [2]?
**A.** inactive

**Q.** What about the Activity [3] of the same molecule?
**A.** inactive

**Q.** And the Activity (Coxsackievirus B4)?
**A.** inactive

**Q.** And the Activity (Feline coronavirus)?
**A.** inactive

**Q.** And the Activity (Yellow fever virus)?
**A.** inactive

**Q.** What about the Activity (Dengue virus) of the same molecule?
**A.** inactive

**Q.** And the Activity (Rift Valley fever virus)?
**A.** inactive

**Q.** And the Activity (Punta Toro virus)?
**A.** inactive

**Q.** And the Activity (West Nile virus)?
**A.** inactive

**Q.** And the Ki [4]?
**A.** 5 µM

**Q.** What about the Ki [5] of the same molecule?
**A.** 2.1 µM

**Q.** And the selectivity ratio [26]?
**A.** > 909

**Q.** What about the solubility [15] of the same molecule?
**A.** 1.7 µM (≈ 0.654 µg/mL)

**Q.** And the solubility [16]?
**A.** 0.9 µM (≈ 0.346 µg/mL)

**Q.** What about the EC50 [27] of the same molecule?
**A.** 0.22 µM

**Q.** What about the Activity [17] of the same molecule?
**A.** inactive

**Q.** And the Activity [18]?
**A.** inactive

**Q.** What about the EC50 [28] of the same molecule?
**A.** > 200 µM

**Q.** And the CC50 at 96 h [29]?
**A.** > 200 µM

**Q.** What about the Activity (Human alphaherpesvirus 1) of the same molecule?
**A.** inactive

**Q.** And the Activity (Human alphaherpesvirus 2)?
**A.** inactive

**Q.** And the Activity (Vaccinia virus)?
**A.** inactive

**Q.** What does the source list for `Cc1cc(C)cc(Cc2cc(C)ccc2OCCn2ccc(=O)[nH]c2=O)c1`?
**A.** Activity (Human respirovirus 3): inactive; Activity [1]: inactive; Activity (Sindbis virus): inactive; Activity [2]: inactive; Activity [3]: inactive; Activity (Coxsackievirus B4): inactive; Activity (Feline coronavirus): inactive; Activity (Yellow fever virus): inactive; Activity (Dengue virus): inactive; Activity (Rift Valley fever virus): inactive; Activity (Punta Toro virus): inactive; Activity (West Nile virus): inactive; Ki [4]: 5.9 µM; Ki [5]: 2.7 µM; inhibition [30]: Active; selectivity ratio [26]: 507; solubility [15]: 184 µM (≈ 67.2 µg/mL); solubility [16]: 44.4 µM (≈ 16.2 µg/mL); EC50 [27]: 0.13 µM; Activity [17]: inactive; Activity [18]: inactive; CC50 at 96 h [29]: 66 µM; Activity (Human alphaherpesvirus 1): inactive; Activity (Human alphaherpesvirus 2): inactive; Activity (Vaccinia virus): inactive

— ChEMBL document CHEMBL1833830, “1-[2-(2-Benzoyl- and 2-benzylphenoxy)ethyl]uracils as potent anti-HIV-1 agents” (Bioorg Med Chem, 2011)
